Here are results for four compounds from patent US6759413B2, “Use of cox-2 inhibitors as gastroprokinetics” (SmithKline Beecham Corporation, priority 2000, dated 2004).

One assay deals with Rats. Description: Rat model of post operative ileus (methylene blue meal transit). In kind it is in vivo. Conditions: 3 mg/kg intravenous infusion; four hours post-gavage; eight rats; vehicle 49.3±1.3 cm; p<0.05. As to the method: Activity In Vivo: Rat Model of Post Operative Ileus
The selective COX-2 inhibitor 2-(4-ethoxy-phenyl)-3-(4-methanesulfonyl-phenyl)-pyrazolo[1,5-b]pyridazine was evaluated in a rat model of post-operative ileus. The methodology represents a modification of the procedure described by McGill et al, Gastroenterology 116: A1040 (1999).
Rats (fourteen) received 0.5 cc of skimmed milk with methylene blue by gavage. Either vehicle (six rats) or 2-(4-ethoxy-phenyl)-3-(4-methanesulfonyl-phenyl)-pyrazolo[1,5-b]pyridazine (eight rats) was then administered by intravenous infusion. Rats were sacrificed four hours post-gavage and the distance the methylene blue meal traversed the intestine measured. The pylorus was set at 0 cm. With vehicle treatment, the meal traversed 49.3±1.3 cm while with 2-(4-ethoxy-phenyl)-3-(4-methanesulfonyl-phenyl)-pyrazolo[1,5-b]pyridazine (3 mg/kg), the meal traversed 67.8±1.1 cm (p<0.05).

Assay [1] deals with strips of canine fundic circular muscle. Put plainly: Smooth muscle in vitro model: fundic circular muscle strips, relaxation/tension change. In kind it is cell-based. Conditions: 10 μM; n=6-8 strips; FIG. 2.
A further assay deals with Beagle dogs. Description: Dog model of gastric emptying (solid phase, gamma camera). The assay is classed as in vivo. The note with it: po for three days, measured on fourth day after am dosing; cisapride 0.14 mg/kg TID, celecoxib 2.8 mg/kg BID, 8-acetyl compound 1.2 mg/kg BID; FIG. 3. As to the method: Activity In Vivo: Dog Model of Gastric Emptying
Beagle dogs were treated for three days with test agents (po administration): placebo BID; cisapride 0.14 mg/kg TID; celecoxib 2.8 mg/kg BID; or 8-acetyl-3-(4-fluoro-phenyl)-2-(4-methanesulfonyl-phenyl)-imidazo[1,2-a]pyridine 1.2 mg/kg BID. Solid phase gastric emptying was measured on the fourth day following am dosing. The same three animals were used for evaluation of each agent, thus reducing any interanimal variations.
Isotope-labeled solid food was fed to the dogs for their morning meal and animals were then placed under a gamma camera and scans performed over the 24 to 36 hours.

Another assay concerns dogs. Description: Dog model of lower esophageal sphincter pressure (LESP). The assay is classed as in vivo. The note with it: 3 days treatment, day 4 am dose; cisapride 0.14 mg/kg TID, celecoxib 1.2 mg/kg BID; FIG. 4. As to the method: Activity In Vivo: Dog Model of Lower Esophageal Sphincter Pressure (LESP) Six adult dogs were instrumented with 14 French esophagostomy tubes. Animals were treated for 3 days with placebo (BID), cisapride (0.14 mg/kg TID) or celecoxib (1.2 mg/kg BID). On day 4 dogs received their am dose of test agent and water perfused manometry catheters were inserted through the esophagostomy tubes. Lower esophageal sphincter pressures (LESPs) were then monitored.

Assay [2] relates to strips of canine antrum circular muscles. Description: Smooth muscle in vitro model of gastric propulsion: antral circular muscle strips, acetylcholine-induced contraction. In kind it is cell-based. Conditions: 10 μM test agent; ACh 1 μM; n=4-8 strips; organ bath, Krebs solution; FIG. 1. As to the method: Smooth Muscle in vitro Model of Gastric Propulsion
Agents which stimulate antral smooth muscle activity would be expected to enhance the rate of gastric emptying by propulsion of contents in the aboral direction. By contrast, fundic relaxation could lead to delayed emptying of the stomach as the upper stomach would serve as a reservoir for gastric contents.
The effects of test agents were evaluated on strips of canine antrum circular muscles (n=4-8 strips) suspended in organ baths bathed with Krebs solution. Following establishment of baseline tension, acetylcholine (“ACh”; 1 μM), indomethacin (10 μM), or 8-acetyl-3-(4-fluoro-phenyl)-2-(4-methanesulfonyl-phenyl)-imidazo[1,2-a]pyridine (“8-Acetyl- . . . ”; 10 μM) were applied and tension changes monitored and recorded on a polygraph.

`CCOc1ccc(-c2nn3ncccc3c2-c2ccc(S(C)(=O)=O)cc2)cc1` [2-(4-ethoxy-phenyl)-3-(4-methanesulfonyl-phenyl)-pyrazolo[1,5-b]pyridazine]: the “distance the methylene blue meal traversed the intestine (pylorus = 0 cm)” value in the assay with Rats came to 67.8±1.1 cm.

With `CC(=O)c1cccn2c(-c3ccc(F)cc3)c(-c3ccc(S(C)(=O)=O)cc3)nc12` [8-acetyl-3-(4-fluoro-phenyl)-2-(4-methanesulfonyl-phenyl)-imidazo[1,2-a]pyridine], the “relaxation / change in tension of fundic circular muscle” value in assay [1] is reported as “only small changes in tension”. In addition, the “rate of solid phase gastric emptying” value in the assay with Beagle dogs is “increased the rate of gastric emptying”.

Regarding `COc1cc(N)c(Cl)cc1C(=O)NC1CCN(CCCOc2ccc(F)cc2)CC1OC` (stereo not shown) [cisapride], the “lower esophageal sphincter pressure (LESP) compared to placebo” value in the assay on dogs was “increased LESP”. Moreover, the “rate of solid phase gastric emptying” value in the assay with Beagle dogs is reported as “increased the rate of gastric emptying”.

As to `COc1ccc2c(c1)c(CC(=O)O)c(C)n2C(=O)c1ccc(Cl)cc1` [indomethacin], the “relaxation / change in tension of fundic circular muscle” value in assay [1] is given as “near complete relaxation”. Further, the “sensitisation of antral circular muscle to acetylcholine-induced contractions” value in assay [2] is on record as “enhanced acetylcholine-induced contractions”.
